Assay results taken from US9371328B2, “Imidazopyridazinecarbonitriles useful as kinase inhibitors” (BRISTOL-MYERS SQUIBB COMPANY, priority 2008, dated 2016).
Read-outs that look alike come from different tables or passages of the source.

Columns and labels:
[1] = test system: HCT116; assay: Cell proliferation inhibition assay (MTT/MTS); type: cell-based; details: Homo sapiens, HCT-116, Table 1, 72 h with compound
Procedure: Compounds were evaluated for their ability to inhibit cell proliferation, using an assay that measures mitochondrial metabolic activity, that is directly correlated with cell numbers. Cells were plated at 2000 cells/well in 96-well plates and were cultured for 24 h in RPMI-1640 supplemented with 2% fetal bovine serum, before test compounds were added. Compounds were diluted in culture medium such that the final concentration of dimethyl sulfoxide never exceeded 1%. Following the addition of compounds, the cells were cultured for an additional 72 h before cell viability was determined by measuring the conversion of 3-(4,5-dimethylthiazol-2-yl)-2,5-diphenyltetrazolium bromide (MTT) dye using the CellTiter96 kit (Promega) or by measuring the conversion of [3-(4,5-dimethylthiazol-2-yl)-5-(3-carboxymethoxyphenyl)-2-(4-sulfophenyl)-2H-tetrazolium (MTS) dye using the CELLTITER 96® AQueous (Promega).

[2] = biological target: T1, CK2A2 (CK2α′/β) (Homo sapiens, UniProt P19784); assay: CK2 kinase assay, CK2A2 (CK2α′/β); type: biochemical
T1 construct: made in house
Procedure: (§1) The effectiveness of compounds of the present invention as inhibitors of protein kinases can be readily tested by assays known to those skilled in the art. For example, in vitro protein kinase assays may be conducted with a relevant purified protein kinase and an appropriate synthetic substrate to determine the inhibitory activity of the compounds. […] Reaction mixtures were incubated at 30° C. for 1 hour, and reaction products were captured by binding to phosphocellulose (P81) filter plates. Incorporation of radioactive phosphate into the peptide substrate was determined by liquid scintillation counting. The potency of compounds in inhibiting CK2 is expressed as IC50, defined as the concentrations of compounds required to inhibit the enzymatic activity by 50%.
(§2) The inhibitory activity of the instant compounds may also be measured by recombinant CK2 holoenzyme kinase assays. The assays were performed in U-bottom 384-well plates. The final assay volume was 30 μl prepared from 15 μl additions of enzyme and substrates (fluoresceinated peptide FL-RRRADDSDDDDD-NH2 and ATP) and test compounds in assay buffer (20 mM HEPES pH 7.4, 10 mM MgCl2, 100 mM NaCl, 0.015% Brij35 and 0.25 mM DTT). The reaction was initiated by the combination of bacterially expressed, CK2 α/β or CK2 α′/β holoenzyme with substrates and test compounds. The reaction was incubated at room temperature for 60 minutes and terminated by adding 30 μl of 35 mM EDTA to each sample. The reaction mixture was analyzed on the Caliper LABCHIP® 3000 (Caliper, Hopkinton, Mass.) by electrophoretic separation of the fluorescent substrate and phosphorylated product. Inhibition data were calculated by comparison to no enzyme control reactions for 100% inhibition and vehicle-only reactions for 0% inhibition. The final concentration of reagents in the CK2 α/β assay was 25 μM ATP, 1.5 μM FL-RRRADDSDDDDD-NH2, […] CK2 α/β holoenzyme, and 1.6% DMSO. The final concentration of reagents in the CK2 α′/β assay was 10 μM ATP, 1.5 μM FL-RRRADDSDDDDD-NH2, 100 pM CK2 α′/β holoenzyme, and 1.6% DMSO. Dose response curves were generated to determine the concentration required inhibiting 50% of kinase activity (IC50). Compounds were dissolved at 10 mM in dimethylsulfoxide (DMSO) and evaluated at eleven concentrations. IC50 values were derived by non-linear regression analysis.

[3] = biological target: T2, CK2A1 (CK2α/β) (Homo sapiens, UniProt P68400); assay: CK2 kinase assay, CK2A1 (CK2α/β); type: biochemical
T2 construct: made in house
Procedure: as §1, §2

[4] = Table 1, read-out: CK2A2 (CK2α′/β) (IC50)
[5] = Table 1, read-out: CK2A1 (CK2α/β) (IC50)
[6] = Table 2, comparison compounds of US 2008/0045536, read-out: CK2A1 IC50
[7] = Table 2, comparison compounds of US 2008/0045536, read-out: CK2A2 IC50

T1 sequence (P19784 whole entry, species assumed): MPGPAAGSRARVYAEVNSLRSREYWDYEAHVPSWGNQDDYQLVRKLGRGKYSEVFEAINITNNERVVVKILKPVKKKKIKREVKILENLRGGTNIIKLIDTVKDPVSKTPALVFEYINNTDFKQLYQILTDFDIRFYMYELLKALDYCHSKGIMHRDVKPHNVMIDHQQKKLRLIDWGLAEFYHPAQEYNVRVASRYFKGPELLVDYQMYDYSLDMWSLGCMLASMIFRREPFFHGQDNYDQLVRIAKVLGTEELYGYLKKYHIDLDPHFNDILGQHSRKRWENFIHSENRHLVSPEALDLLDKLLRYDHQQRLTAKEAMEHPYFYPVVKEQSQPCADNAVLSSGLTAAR
T1 sequence (P67870 whole entry partner, species assumed): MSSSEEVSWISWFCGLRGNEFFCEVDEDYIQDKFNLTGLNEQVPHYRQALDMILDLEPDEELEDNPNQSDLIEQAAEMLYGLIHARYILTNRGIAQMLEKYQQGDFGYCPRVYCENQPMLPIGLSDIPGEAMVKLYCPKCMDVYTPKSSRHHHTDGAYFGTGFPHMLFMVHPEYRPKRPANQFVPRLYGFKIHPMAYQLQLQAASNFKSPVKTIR
T2 sequence (P68400 whole entry, species assumed): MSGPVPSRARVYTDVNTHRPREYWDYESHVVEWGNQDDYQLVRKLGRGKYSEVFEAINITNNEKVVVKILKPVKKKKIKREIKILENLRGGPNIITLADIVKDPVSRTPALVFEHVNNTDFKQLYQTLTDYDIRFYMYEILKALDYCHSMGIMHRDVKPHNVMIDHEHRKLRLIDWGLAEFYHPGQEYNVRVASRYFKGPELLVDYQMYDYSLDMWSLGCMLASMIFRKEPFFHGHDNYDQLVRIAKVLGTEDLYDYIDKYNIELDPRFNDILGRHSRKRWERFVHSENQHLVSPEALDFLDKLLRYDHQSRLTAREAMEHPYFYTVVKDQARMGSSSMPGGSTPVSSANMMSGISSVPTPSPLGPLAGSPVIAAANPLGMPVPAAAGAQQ
T2 sequence (P67870 whole entry partner, species assumed): as the sequence (P67870 whole entry partner, species assumed) above

SMILES	IC50 [1]	IC50 [2, 4]	IC50 [3, 5]	IC50 [3, 6]	IC50 [2, 7]
CC(=O)Nc1cc(Nc2cc(NC3CC3)c3ncc(C#N)n3n2)ccc1C [Example 1, N-(5-((3-Cyano-8-(cyclopropylamino)imidazo[1,2-b]pyridazin-6-yl)amino)-2-methylphenyl)acetamide]	30 nM	7.5 nM	6 nM	–	–
N#Cc1ccc(Nc2cc(NC3CC3)c3ncc(C#N)n3n2)cc1C(F)(F)F [Example 31, 6-((4-Cyano-3-(trifluoromethyl)phenyl)amino)-8-(cyclopropylamino)imidazo [1,2-b]pyridazine-3-carbonitrile]	460 nM	25.7 nM	143 nM	–	–
COc1cc(Nc2cc(NC3CC3)c3ncc(C#N)n3n2)cc(-n2nnnc2C)c1 [Example 37, 8-(Cyclopropylamino)-6-((3-methoxy-5-(5-methyl-1H-tetrazol-1-yl)phenyl)amino) imidazo[1,2-b]pyridazine-3-carbonitrile]	163 nM	4.5 nM	11 nM	–	–
N#Cc1cnc2c(NC3CC3)cc(Nc3cccc(C(=O)O)c3)nn12 [Example 44, 3-((3-Cyano-8-(cyclopropylamino)imidazo [1,2-b]pyridazin-6-yl)amino) benzoic acid]	> 1000 nM	35.1 nM	1310 nM	–	–
N#Cc1cnc2c(NC3CC3)cc(Nc3ccc(F)c(-n4cnnc4)c3)nn12 [Example 46, 8-(Cyclopropylamino)-6-((4-fluoro-3-(4H-1,2,4-triazol-4-yl)phenyl)amino)imidazo [1,2-b]pyridazine-3-carbonitrile]	150 nM	2.4 nM	4.3 nM	–	–
N#Cc1ccc(Cl)c(Nc2cc(NC3CC3)c3ncc(C#N)n3n2)c1 [Example 47, 6-((2-Chloro-5-cyanophenyl)amino)-8-(cyclopropylamino) imidazo[1,2-b]pyridazine-3-carbonitrile]	41 nM	5.2 nM	7.4 nM	–	–
Cn1cnnc1-c1cccc(Nc2cc(NC3CC3)c3ncc(C#N)n3n2)c1 [Example 48, 8-(Cyclopropylamino)-6-((3 - (4-methyl-4H-1,2,4-triazol-3-yl)phenyl)amino) imidazo[1,2-b]pyridazine-3-carbonitrile]	460 nM	106 nM	417 nM	–	–
COc1ccc(Nc2cc(NC3CC3)c3ncc(C#N)n3n2)cc1OC [Example 56, 8-(Cyclopropylamino)-6-((3,4-dimethoxyphenyl)amino)imidazo[1,2-b] pyridazine-3-carbonitrile]	482 nM	35.9 nM	155 nM	–	–
N#Cc1cnc(Nc2cc(NC3CC3)c3ncc(C#N)n3n2)s1 [Example 57, 6-((5-Cyano-1,3-thiazol-2-yl)amino)-8-(cyclopropylamino) imidazo[1,2-b]pyridazine-3-carbonitrile]	521 nM	58.2 nM	310 nM	–	–
Cc1cc(O)nc2cc(Nc3cc(NC4CC4)c4ncc(C#N)n4n3)ccc12 [Example 58, 8-(Cyclopropylamino)-6-((4-methyl-2-oxo-1,2-dihydro-7-quinolinyl)amino)imidazo[1,2-b]pyridazine-3-carbonitrile]	98 nM	2.2 nM	12.2 nM	–	–
CC(=O)N1CCc2ccc(Nc3cc(NC4CC4)c4ncc(C#N)n4n3)cc21 [Example 64, 6-((1-Acetyl-2,3-dihydro-1H-indol-6-yl)amino)-8-(cyclopropylamino)imidazo [1,2-b]pyridazine-3-carbonitrile]	48 nM	1 nM	12 nM	–	–
CC(C)C(=O)Nc1cccc(Nc2cc(NC3CC3)c3ncc(C#N)n3n2)c1 [Example 66, N-(3-((3-Cyano-8-(cyclopropylamino)imidazo [1,2-b]pyridazin-6-yl)amino)phenyl)-2-methylpropanamide]	> 2500 nM	778 nM	6060 nM	–	–
N#Cc1cnc2c(NC3CC3)cc(Nc3cccc(C(N)=O)c3)nn12 [Example 71, 3-((3-Cyano-8-(cyclopropylamino)imidazo [1,2-b]pyridazin-6-yl)amino) benzamide]	945 nM	15.6 nM	261 nM	–	–
N#Cc1cnc2c(NC3CC3)cc(Nc3cccc(N4CCCC4=O)c3)nn12 [Example 73, 8-(Cyclopropylamino)-6-((3-(2-oxo-1-pyrrolidinyl)phenyl)amino)imidazo[1,2-b]pyridazine-3-carbonitrile]	2240 nM	738 nM	4600 nM	–	–
Cc1nc(-c2cccc(Nc3cc(NC4CC4)c4ncc(C#N)n4n3)c2)cs1 [Example 80, 8-(Cyclopropylamino)-6-((3-(2-methyl-1,3-thiazol-4-yl)phenyl)amino)imidazo[1,2-b]pyridazine-3-carbonitrile]	> 1000 nM	1490 nM	4660 nM	–	–
N#Cc1cnc2c(NC3CC3)cc(Nc3ccc(Cl)c(-c4ncco4)c3)nn12 [Example 81, 6-((4-Chloro-3-(1,3-oxazol-2-yl)phenyl)amino)-8-(cyclopropylamino)imidazo [1,2-b]pyridazine-3-carbonitrile]	> 1000 nM	115 nM	512 nM	–	–
N#Cc1cnc2c(NC3CC3)cc(Nc3cccc(-c4nnco4)c3)nn12 [Example 82, 8-(Cyclopropylamino)-6-((3-(1,3,4-oxadiazol-2-yl)phenyl)amino)imidazo[1,2-b]pyridazine-3-carbonitrile]	127 nM	126 nM	479 nM	–	–

Next, values leading:

IC50 [1]	IC50 [2, 4]	IC50 [3, 5]	IC50 [3, 6]	IC50 [2, 7]	SMILES
> 1000 nM	940 nM	6670 nM	–	–	CN1CCN(C(=O)c2ccc(Nc3cc(NC4CC4)c4ncc(C#N)n4n3)cc2N)CC1 [Example 89, 6-((3-Amino-4-((4-methyl-1-piperazinyl)carbonyl)phenyl)amino)-8-(cyclopropylamino)imidazo [1,2-b]pyridazine-3-carbonitrile]
> 1000 nM	68.4 nM	712 nM	–	–	COC(=O)Nc1cc(Nc2cc(NC3CC3)c3ncc(C#N)n3n2)ccc1C(=O)N1CCN(C)CC1 [Example 93, Methyl (5-((3-cyano-8-(cyclopropylamino)imidazo [1,2-b]pyridazin-6-yl)amino)-2-((4-methyl-1-piperazinyl)carbonyl)phenyl) carbamate]
22 nM	3 nM	6.5 nM	–	–	COC(=O)Nc1cc(Nc2cc(NC3CC3)c3ncc(C#N)n3n2)ccc1C [Example 95, Methyl (5-((3-cyano-8-(cyclopropylamino)imidazo [1,2-b]pyridazin-6-yl)amino)-2-methylphenyl) carbamate]
34 nM	24 nM	116 nM	–	–	COc1ccc(Nc2cc(Nc3ccc(OC(F)(F)F)c(-n4cnnc4)c3)nn3c(C#N)cnc23)nc1 [Example 111, 8-((5-Methoxy-2-pyridinyl)amino)-6-((3-(4H-1,2,4-triazol-4-yl)-4-(trifluoromethoxy)phenyl)amino)imidazo[1,2-b] pyridazine-3-carbonitrile]
–	–	–	> 50000 nM	–	CCOc1ccc(Nc2cc(N[C@H]3CC[C@H](N)CC3)nn3ccnc23)cc1 [I(1), reference compound]
–	–	–	> 50000 nM	> 50000 nM	N[C@H]1CC[C@H](Nc2cc(Nc3ccccc3)c3nccn3n2)CC1 [I(7), reference compound]
–	–	–	> 50000 nM	31800 nM	Cc1ccc(Nc2cc(N[C@H]3CC[C@H](N)CC3)nn3ccnc23)nc1 [II(16), reference compound]
–	–	–	2690 nM	8090 nM	Cc1c(N[C@H]2CC[C@H](N)CC2)nn2c(C#N)cnc2c1Nc1ccccc1 [XXV(1), reference compound]
